# Reference: patent publication US8377981B2, “CBI derivatives subject to reductive activation” (The Scripps Research Institute, priority 2007, dated 2013)
# Where two headings read alike, the source gives them in different places.
# Experiments:
# [1] = test system: H460 (mitomycin-sensitive, expresses high levels of DT-Diaphorase) non small cell lung cancer (NSCLC) cell line; test: Cytotoxic activity, H460 cell line; format: cell-based
# Method: (§1) The O-amino phenol derivatives bearing the N—O prodrug linkages and the various N-acyl substituents were assayed for cytotoxic activity alongside the parent drugs CBI-TMI (2) (Boger, D. L.; Yun, W. J. Am. Chem. Soc. 1994, 116, 7996) and mitomycin C (Boger, D. L.; et al. Bioorg. Med. Chem. Lett. 1991, 1, 115; Boger, D. L.; et al. Bioorg. Med. Chem. 1995, 3, 1429) as well as the two control standards 9 and 10 incapable of free phenol release. Three cell lines were examined including a standard L1210 cell line (mouse leukemia) as well as the mitomycin-sensitive (H460, expresses high levels of DT-Diaphorase) and resistant (H596, lacks DT-Diaphorase) non small cell lung cancer (NSCLC) cell lines, with results shown in the Table below.
# [2] = test system: H596 (mitomycin-resistant, lacks DT-Diaphorase) non small cell lung cancer (NSCLC) cell line; test: Cytotoxic activity, H596 cell line; format: cell-based
# Method: as §1
# [3] = test system: L1210 cell line (mouse leukemia); test: Cytotoxic activity, L1210 cell line; format: cell-based
# Method: as §1
# [4] = test system: L1210 murine leukemia implanted i.p. into DBA/2J mice; test: In vivo antitumor activity, second site (neat DMSO, terminated after 120 days); set-up: species or system mouse; settings: for Surviving Mice: still living after 120 days
# Method: Confirming these observations, an analogous antitumor assessment was carried out independently at a second site utilizing a slightly different and harsher protocol for drug administration (neat DMSO vs 30% DMSO in 0.1% glucose).
# In the above Table, the second column is the dose in mg/kg of body weight of the animal that is administered i.p. (into the intraperitoneal cavity) on days 1, 5, and 9. The surviving mice are the number of mice that are still living after 120 days and the experiment was then terminated.
# An analogous study with 10 mice per group was performed at the University of Kansas with the distinction that the compounds were administered in neat DMSO (0, 10, 30, 60, 100 µg/kg wt. of animal) and the study was terminated after 120 days.
# [5] = test system: L1210 murine leukemia implanted i.p. into DBA/2J mice; test: In vivo antitumor activity, L1210 i.p. in DBA/2J mice (30% DMSO in 0.1% glucose); set-up: species or system mouse; settings: for Surviving Mice: 365 days; for weight loss of treated animals: days 30-100, highest dosing
# Text: The prodrug 8 was examined for in vivo efficacy alongside the parent drug 3 in a standard antitumor model enlisting L1210 murine leukemia implanted i.p. into DBA/2J mice. This model has been reported to respond well to the parent drugs of related compounds (Li, L. H.; et al. Invest. New Drugs 1991, 9, 137) and is a system that collaborators through the years have used to assess an extensive series of (+)-CBI-indole2 analogues. Although not published, these latter studies provided the foundation on which examination of 8 is based.
# With use the dose range (10-100 μg/kg) and the dosing schedule (administered three times i.p. on days 1, 5, and 9) found suitable for related parent drugs including (+)-CBI-indole2 (3) (Boger, D. L.; et al. Bioorg. Med. Chem. Lett. 1991, 1, 115; Boger, D. L.; et al. Bioorg. Med. Chem. 1995, 3, 1429), the prodrug 8 was examined as is shown in the Table below.
# DBA/2J mice were purchased from Jackson Laboratory (Bar Harbor, Me.) and housed in the animal facility at The Scripps Research Institute. L1210 tumor cells, originally isolated from DBA/2 mice, were cultured in DMEM medium containing 5% fetal calf serum. For tumor implantation, DBA/2J mice were i.p. injected with 1×10^5 L1210 cells at day 0.
# Compounds 3 and 8 were formulated with 30% DMSO plus 0.1% glucose solution. Treatment doses of drugs (0, 10, 30, 100 µg/kg wt. of animal) were i.p. injected consecutively on day 1, 5 and 9. The study was performed with six mice per group. Tumor growth in the peritoneal cavity was monitored daily and the death of animals was recorded. If necessary, weights of animals were measured once a week. To date this monitoring of the animals has lasted 365 days.
# [6] = Chemical stability and reactivity of the N-acyl O-amino phenol derivatives; format: physicochemical
# [7] = Homo sapiens, NCI-H460, read-out: IC50 (nM) H460
# [8] = unnatural enantiomer series, CBI-TMI derivatives, read-out: IC50 (nM) H460
# [9] = Homo sapiens, NCI-H596, read-out: IC50 (nM) H596
# [10] = unnatural enantiomer series, CBI-TMI derivatives, read-out: IC50 (nM) H596
# [11] = Mus musculus, L1210, read-out: IC50 (nM) L1210, natural enantiomer series, CBI-TMI derivatives
# [12] = unnatural enantiomer series, CBI-TMI derivatives, read-out: IC50 (nM) L1210
# [13] = 10 μg/kg i.p. days 1, 5, 9, neat DMSO
# [14] = 30 μg/kg i.p. days 1, 5, 9, neat DMSO
# [15] = 60 μg/kg i.p. days 1, 5, 9, neat DMSO
# [16] = 100 μg/kg i.p. days 1, 5, 9, neat DMSO
# [17] = unnatural enantiomer series, CBI-indole2 derivatives, read-out: IC50 (nM) H460
# [18] = Homo sapiens, NCI-H596, natural enantiomer series, CBI-indole2 derivatives, read-out: IC50 (nM) H596
# [19] = unnatural enantiomer series, CBI-indole2 derivatives, read-out: IC50 (nM) H596
# [20] = unnatural enantiomer series, CBI-indole2 derivatives, read-out: IC50 (nM) L1210
smiles,measurement,setting,value
"COc1cc2cc(C(=O)N3C[C@@H](CCl)c4c3cc(O)c3ccccc43)[nH]c2c(OC)c1OC [Compound 2, seco-CBI-TMI, reference compound]",IC50,[1]; [7],0.5 nM
same,IC50,[1]; [8],50 nM
same,fold lower sensitivity of H596 than H460,[2]; H596 versus H460,10 fold
same,IC50,[2]; [9],5 nM
same,IC50,[2]; [10],300 nM
same,IC50,[3]; [11],0.04 nM
same,IC50,[3]; [12],5 nM
"O=C(Nc1ccc2[nH]c(C(=O)N3C[C@@H](CCl)c4c3cc(O)c3ccccc43)cc2c1)c1cc2ccccc2[nH]1 [Compound 3, seco-CBI-indole2, reference compound]",Mean Survival Period (MSP),[4]; [13],>60 days
same,Treated/Control (MSP × 100),[4]; [13],>271
same,Surviving Mice,[4]; 10 μg/kg,3/10
same,Mean Survival Period (MSP),[4]; [14],>65 days
same,Treated/Control (MSP × 100),[4]; [14],>295
same,Surviving Mice,[4]; 30 μg/kg,3/10
same,Mean Survival Period (MSP),[4]; [15],>71 days
same,Treated/Control (MSP × 100),[4]; [15],>324
same,Surviving Mice,[4]; 60 μg/kg,3/10
same,Mean Survival Period (MSP),[4]; [16],11 days
same,Treated/Control (MSP × 100),[4]; [16],52
same,Surviving Mice,[4]; 100 μg/kg,0/10
same,Mean Survival Period (MSP),"[5]; 10 μg/kg i.p. days 1, 5, 9",34 days
same,Treated/Control (MSP × 100),"[5]; 10 μg/kg i.p. days 1, 5, 9",170
same,Surviving Mice,"[5]; 10 μg/kg i.p. days 1, 5, 9",0/6
same,Mean Survival Period (MSP),"[5]; 30 μg/kg i.p. days 1, 5, 9",>115 days
same,Treated/Control (MSP × 100),"[5]; 30 μg/kg i.p. days 1, 5, 9",>580
same,Surviving Mice,"[5]; 30 μg/kg i.p. days 1, 5, 9",1/6
same,Mean Survival Period (MSP),"[5]; 100 μg/kg i.p. days 1, 5, 9",125 days
same,Treated/Control (MSP × 100),"[5]; 100 μg/kg i.p. days 1, 5, 9",625
same,Surviving Mice,"[5]; 100 μg/kg i.p. days 1, 5, 9",0/6
same,weight loss of treated animals,[5],weight loss that was evident
same,fate of surviving mice at day 90,[5]; prolonged management beyond day 90,eventually expired due to drug administration related complications
same,IC50,"[1]; Homo sapiens, NCI-H460, natural enantiomer series, CBI-indole2 derivatives, read-out: IC50 (nM) H460",0.2 nM
same,IC50,[1]; [17],6 nM
same,IC50,[2]; [18],2 nM
same,IC50,[2]; [19],40 nM
same,IC50,"[3]; Mus musculus, L1210, natural enantiomer series, CBI-indole2 derivatives, read-out: IC50 (nM) L1210",0.03 nM
same,IC50,[3]; [20],0.7 nM
COc1cc2cc(C(=O)N3C[C@@H](CCl)c4c3cc(ONC(C)=O)c3ccccc43)[nH]c2c(OC)c1OC [Compound 5],stability on long term storage,[6]; storage,withstanding even long term storage effectively
same,IC50,[1]; [7],0.7 nM
same,IC50,[2]; [9],7 nM
same,IC50,[3]; [11],0.3 nM
COc1cc2cc(C(=O)N3C[C@@H](CCl)c4c3cc(ON(C(C)=O)C(=O)OC(C)(C)C)c3ccccc43)[nH]c2c(OC)c1OC [Compound 6],stability to acidic conditions,"[6]; TFA-CH2Cl2, 4 N HCl-EtOAc",surprisingly robust to acidic conditions
same,IC50,[1]; [7],0.6 nM
same,IC50,[2]; [9],5 nM
same,IC50,[3]; [11],0.2 nM
COc1cc2cc(C(=O)N3CC(CCl)c4c3cc(ON3C(=O)c5ccccc5C3=O)c3ccccc43)[nH]c2c(OC)c1OC (centres unmarked) [Compound 7],IC50,[1]; [8],600 nM
same,IC50,[2]; [10],6000 nM
same,IC50,[3]; [12],60 nM
CC(C)(C)OC(=O)NOc1cc2c(c3ccccc13)[C@H](CCl)CN2C(=O)c1cc2cc(NC(=O)c3cc4ccccc4[nH]3)ccc2[nH]1 [Compound 8],Mean Survival Period (MSP),[4]; [13],>46 days
same,Treated/Control (MSP × 100),[4]; [13],>210
same,Surviving Mice,[4]; 10 μg/kg,2/10
same,Mean Survival Period (MSP),[4]; [14],>51 days
same,Treated/Control (MSP × 100),[4]; [14],>232
same,Surviving Mice,[4]; 30 μg/kg,2/10
same,Mean Survival Period (MSP),[4]; [15],>93 days
same,Treated/Control (MSP × 100),[4]; [15],>425
same,Surviving Mice,[4]; 60 μg/kg,7/10
same,Mean Survival Period (MSP),[4]; [16],>63 days
same,Treated/Control (MSP × 100),[4]; [16],>288
same,Surviving Mice,[4]; 100 μg/kg,3/10
same,efficacy compared with free drug 3,"[4]; deaths due to the disease, tumor counts, tumor volume","comparable or superior in terms of reducing deaths due to the disease, tumor counts, and tumor volume"
same,toxicity of administration compared with free drug 3,"[4]; neat DMSO, 120 days",significantly less toxic than free drug 3
same,Mean Survival Period (MSP),"[5]; 10 μg/kg i.p. days 1, 5, 9",25 days
same,Treated/Control (MSP × 100),"[5]; 10 μg/kg i.p. days 1, 5, 9",120
same,Surviving Mice,"[5]; 10 μg/kg i.p. days 1, 5, 9",0/6
same,Mean Survival Period (MSP),"[5]; 30 μg/kg i.p. days 1, 5, 9",>145 days
same,Treated/Control (MSP × 100),"[5]; 30 μg/kg i.p. days 1, 5, 9",>730
same,Surviving Mice,"[5]; 30 μg/kg i.p. days 1, 5, 9",2/6
same,Mean Survival Period (MSP),"[5]; 100 μg/kg i.p. days 1, 5, 9",>310 days
same,Treated/Control (MSP × 100),"[5]; 100 μg/kg i.p. days 1, 5, 9",>1550
same,Surviving Mice,"[5]; 100 μg/kg i.p. days 1, 5, 9",5/6
same,weight loss of treated animals,[5],little or no weight loss
same,IC50,[1]; [7],0.3 nM
same,IC50,[2]; [18],4 nM
same,IC50,"[3]; Mus musculus, L1210, read-out: IC50 (nM) L1210, natural enantiomer series, CBI-indole2 derivatives",0.05 nM
same,IC50,"[3]; Mus musculus, L1210, text range over L1210 and H460, natural enantiomer",0.03 to 0.2 nM
same,potency compared with CBI-indole2 (3),[3]; in each cell line examined,essentially equipotent
same,times more active than mitomycin C,[3]; natural enantiomer,100-1000 times
same,fold less active than the natural enantiomer,[3]; unnatural enantiomer of prodrug 8,10-100 fold
"CO[C@@]12[C@H](COC(N)=O)C3=C(C(=O)C(C)=C(N)C3=O)N1C[C@@H]1N[C@@H]12 [mitomycin C, reference compound]",IC50,"[1]; natural enantiomer series, CBI-TMI derivatives, read-out: IC50 (nM) H460",20 nM
same,IC50,"[1]; natural enantiomer series, CBI-indole2 derivatives, read-out: IC50 (nM) H460",20 nM
same,IC50,[1]; [8],20 nM
same,IC50,[1]; [17],20 nM
same,IC50,"[2]; mitomycin-resistant H596 cell line, read-out: IC50",5000 nM
same,IC50,"[2]; natural enantiomer series, CBI-TMI derivatives, read-out: IC50 (nM) H596",5000 nM
same,IC50,"[2]; natural enantiomer series, CBI-indole2 derivatives, read-out: IC50 (nM) H596",5000 nM
same,IC50,[2]; [10],5000 nM
same,IC50,[2]; [19],5000 nM
same,IC50,"[3]; natural enantiomer series, CBI-TMI derivatives, read-out: IC50 (nM) L1210",40 nM
same,IC50,"[3]; natural enantiomer series, CBI-indole2 derivatives, read-out: IC50 (nM) L1210",40 nM
same,IC50,"[3]; text range over L1210 and H460, read-out: IC50",20 to 40 nM
same,IC50,[3]; [12],40 nM
same,IC50,[3]; [20],40 nM
